# In EP1080728A1, “PROSTAGLANDIN EP4 RECEPTOR AGONIST AND TREATMENT METHOD” (TORAY INDUSTRIES, INC., priority 1999, dated 2000):
# Tests used:
# [1] = test system: human normal lung fibroblast cells; test: Effects on collagen production in human normal lung fibroblast cells (TGF-β1 stimulated, Siricol Collagen Assay Kit); assay type: cell-based; details: compound 1 µM with TGF-β1 5 ng/ml, incubated for 24 hours; salt-soluble collagen; Reference (without compound): 1.1 µg/100,000 cells
# Experimental: The suppression action of the compound represented by the formula (II) on the collagen production from the fibroblast cells was confirmed by the following test method. After the human normal lung fibroblast cells were cultured for 48 hours under the condition of confluence (Eagle MEM culture medium with 0.45% FBS), the cells were added(1 µM) the compound represented by the formula (II) and transforming growth factor β1 (TGF-β1) at a concentration of 5 ng/ml, then incubated for 24 hours. The supernatant from the cell culture medium was concentrated by freeze-drying, and the amount of collagen (salt-soluble collagen) was […] assayed using Siricol Collagen Assay Kit (made by Biocolor Co.). The amounts of collagen in the supernatant were as follows: Reference: 1.1 µg/100,000 cells Compound (II): 0.5 µg/100,000 cells It was confirmed that production of collagen by TGF-β1 was suppressed by the compound according to the present invention.
# [2] = biological target: T1, human EP4 receptor subtype (Homo sapiens, UniProt P35408); test: Receptor binding study using PGE2 receptor subtype expression cells (3H-PGE2 displacement, membrane fraction); details: human EP4 receptor transiently expressed in COS-7 cells, membrane fraction 10 µg/tube, 3H-PGE2 5 nM, 30°C for 1 hour; Ki = IC50/(1+[C]/Kd); read-out: DISSOCIATION CONSTANT Ki (nM) EP4
# T1 construct: expressed in transfected cells; host or cells: COS-7 cells (transient expression), membrane fraction
# T1 sequence (P35408 whole entry): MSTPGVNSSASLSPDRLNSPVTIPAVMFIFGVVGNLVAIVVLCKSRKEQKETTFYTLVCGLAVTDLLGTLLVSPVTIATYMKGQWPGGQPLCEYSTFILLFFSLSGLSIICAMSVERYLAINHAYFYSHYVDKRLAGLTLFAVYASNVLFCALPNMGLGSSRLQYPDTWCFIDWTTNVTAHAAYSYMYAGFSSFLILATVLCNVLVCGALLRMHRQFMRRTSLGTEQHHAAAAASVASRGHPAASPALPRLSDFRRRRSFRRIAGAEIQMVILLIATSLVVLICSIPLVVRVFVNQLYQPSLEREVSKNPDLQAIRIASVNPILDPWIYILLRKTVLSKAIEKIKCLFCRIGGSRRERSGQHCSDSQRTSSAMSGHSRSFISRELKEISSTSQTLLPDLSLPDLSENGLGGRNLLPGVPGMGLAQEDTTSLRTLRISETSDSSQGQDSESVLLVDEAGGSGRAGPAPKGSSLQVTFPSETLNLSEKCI
# Experimental: The compound represented by the following formula (II) among the compounds represented by the general formula (I) strongly binds to the EP4 receptor as a subtype of the PGE2 receptor. The binding activity was confirmed in comparison with PGE2 by an experiment using the PGE2 receptor subtype expression cells. [drawing 2]
# The experiment was carried out according to the previous report [Breyer, R. M. et al., J. Biol. Chem. 269, 6163-6169 (1994)], wherein the human EP4 receptor subtype was transiently expressed using COS-7 cells. These cells were prepared as membrane samples. The membrane fraction prepared (10 µg/tube) was incubated with reaction solution containing ^3H-PGE2 at 30°C for 1 hour. The reaction was terminated with ice-cold buffer [10mM MES (pH6.0), 10mM MgCl2, 1mM EDTA], and the bound ^3H-PGE2 was trapped on a glass filter (GF/C) by vacuum filtration under a reduced pressure, followed by counting the radioactivity with a liquid scintillator.
# The Kd value and Bmax were determined from a Scatchard plot according to the conventional method. The non-specific binding was determined by the amount of binding in the presence of an excess amount (5 µM) on the non-labeled PGE2. Inhibitory action of the ^3H-PGE2 binding by the compound to be tested was determined at a concentration of ^3H-PGE2 of 5 nM by adding various concentrations of the compound to be tested. […]
smiles,measurement,setting,value
O=C(O)CCc1cccc2c1O[C@H]1C[C@@H](O)[C@H](/C=C/[C@@H](O)CC3CCCCC3)[C@@H]21 [COMPOUND (II)],amounts of collagen in the supernatant,[1],"0.5 µg/100,000 cells"
same,Ki,[2],19 nM
